# Measured values as given in US9855345B2, “Method for producing lipoplex for topical administration and antitumor agent using such lipoplex” (DELTA-FLY PHARMA, INC., priority 2014, dated 2018).
# Entries after “also recorded” stand apart in the source; their conditions may differ.
# Legend:
# [1] = system: Luciferase-expressing human pancreatic cancer cells PANC-1; test: Therapeutic effect on peritoneal dissemination of pancreatic cancer (IVIS luciferase activity, survival); assay type: in vivo, BALB/c nu/nu mice; conditions: PANC-1-luc model, lipoplex i.p. 20 μg TS-shRNA/mouse, Paclitaxel i.p. 10 mg/kg, days 8, 11, 14, 17, IVIS days 7-25
# Experimental: The therapeutic effects of the TS-shRNA-carrying lipoplex (i.e., novel preparation (2)) prepared in the same manner as in Example 1 on peritoneal dissemination of pancreatic cancer were evaluated.
# Luciferase-expressing human pancreatic cancer cells PANC-1 (PANC-1-luc, Pharmaron) were cultured and transplanted intraperitoneally into BALB/c nu/nu mice (6- to 8-week-old, female, Beijing HFK Bio-Technology Co., Ltd.) at 1.0×10^7 cells/mouse to prepare mouse models for peritoneal dissemination of PANC-1-luc.
# In Example 7, the lipoplex (novel preparation (2)), Paclitaxel (Taxol, Pharmaron), or the lipoplex (novel preparation (2)) in combination with Paclitaxel was administered to different mouse models. A 9% sucrose solution was administered to the control group.
# The lipoplex (novel preparation (2)) was administered intraperitoneally to mouse models in such a manner that 20 μg of TS-shRNA would be administered to each mouse per day, and such administration was carried out four times in total (i.e., 8, 11, 14, and 17 days after the cell transplantation). Paclitaxel was administered intraperitoneally to the relevant group of mouse models four times in total (i.e., 8, 11, 14, and 17 days after the cell transplantation) at 10 mg/kg. […]
# [2] = TS-shRNA concentration in ascites and blood by RT-PCR after intraperitoneal lipoplex administration; assay type: in vivo, BALB/c nu/nu mice; conditions: after i.p. administration of lipoplex (novel preparation (2)), ovarian cancer peritoneal metastasis mouse model
Compound,increase in luciferase activity (tumor growth in the abdominal cavity) compared with the control group [1],half-life of TS-shRNA in the ascites [2],leakage of TS-shRNA into the blood [2]
CC(=O)O[C@H]1C(=O)[C@@]2(C)[C@H]([C@H](OC(=O)c3ccccc3)[C@]3(O)C[C@H](OC(=O)[C@H](O)[C@@H](NC(=O)c4ccccc4)c4ccccc4)C(C)=C1C3(C)C)[C@]1(OC(C)=O)CO[C@@H]1C[C@@H]2O [Paclitaxel],suppressed; also recorded: strong tumor suppression effects,–,–
"TS-shRNA: TS-targeting shRNA, SEQ ID NO: 8, 5′-GUAACACCAUCGAUCAUGAUAGUGCUCCUGGUUGUCAUGAUCGAUGGUGUUACUU-3′ (shRNA hairpin in lipoplex, chemistry not given here)",–,approximately 8 hours,had not leaked
